Assay results as given in patent US20080161403A1, “1-(1,2 Diphenyl-Ethyl)-3-(2-Hydroxyethyl)-Thiourea Compounds For Combating Animal Pests” (priority 2005, published 2008).

Test system: Spodoptera eridania
Experiment: Southern armyworm (Spodoptera eridania), 2nd instar larvae, on dipped lima bean foliage
Type: in vivo
Conditions: 300 ppm, at 5 days
Method: The active compounds were formulated • a. for testing the activity against Aphis gossypii, Myzus persicae, and Aphis fabae, as 50:50 acetone:water solutions amended with 100 ppm Kinetic® (surfactant), • b. for testing the activity against Spodoptera eridania as a 10.000 ppm solution in a mixture of 35% acetone and water, which was diluted with water, if needed.
After the experiments were completed, in each case the lowest concentration was determined at which the compound still caused an 75 to 100% inhibition or mortality in comparison with untreated controls (limit or minimal concentration).
Foliage of two Sieva lima beans plants at the first expanded true-leaf stage that are contained within a single 3.8 cm square plastic pot are dipped into the test solution with agitation for 3 seconds and allowed to dry in a hood. The pot is then placed in a 25.4 cm plastic zipper top bag and infested with ten 2nd instar caterpillars. At 5 days, observations are made of mortality, reduced feeding, or any interference with normal molting.

OCCNC(=S)NC(Cc1cccc(C(F)(F)F)c1)c1cc(Cl)ccc1Cl (stereo not shown) [Example 77]
mortality in comparison with untreated controls: over 75%
